Laboratory results as given in patent US20260337246A1, “METHODS FOR TREATING OBESITY” (Zealand Pharma A/S, priority 2022, published 2026).

Assay: Predicted half-life in humans

Structure (SMILES): CC[C@H](C)[C@H](NC(=O)[C@H](Cc1ccccc1)NC(=O)[C@H](C)NC(=O)[C@H](CCC(N)=O)NC(=O)[C@H](C)NC(=O)[C@H](C)NC(=O)[C@H](CCCCNC(=O)COCCOCCNC(=O)COCCOCCNC(=O)CN1CCN(C(=O)CCCCCCCCCCCCCCCCCCC(=O)O)CC1)NC(=O)[C@H](CCCCN)NC(=O)[C@H](CC(=O)O)NC(=O)[C@H](CC(C)C)NC(=O)[C@H](CCC(=O)O)NC(=O)[C@@H](NC(=O)[C@H](CO)NC(=O)[C@H](Cc1ccc(O)cc1)NC(=O)[C@H](CC(=O)O)NC(=O)[C@H](CO)NC(=O)[C@@H](NC(=O)[C@H](Cc1ccccc1)NC(=O)[C@@H](NC(=O)CNC(=O)[C@H](CCC(=O)O)NC(=O)C(C)(C)NC(=O)[C@@H](N)Cc1ccc(O)cc1)[C@@H](C)O)[C@@H](C)CC)[C@@H](C)CC)C(=O)N[C@@H](CCC(=O)O)C(=O)N[C@@H](Cc1c[nH]c2ccccc12)C(=O)N[C@@H](CC(C)C)C(=O)N[C@@H](CC(C)C)C(=O)N[C@@H](C)C(=O)N[C@@H](CCC(N)=O)C(=O)NCC(=O)N1CCC[C@H]1C(=O)N[C@@H](CO)C(=O)N[C@@H](CO)C(=O)NCC(=O)N[C@@H](C)C(=O)N1CCC[C@H]1C(=O)N1CCC[C@H]1C(=O)N1CCC[C@H]1C(=O)N[C@@H](CO)C(N)=O [Compound 41]
- predicted half-life (in words): half-life supporting once-weekly dosing in humans
